Laboratory results: patent US20150368620A1, “METHOD OF DETACHING ADHERENT CELLS FOR FLOW CYTOMETRY” (KING ABDULLAH UNIVERSITY OF SCIENCE AND TECHNOLOGY, priority 2013, published 2015)

Legend:
BT20 cells [1] = conditions: 12 μl of 15 mM EDTA pH 6.14 added to media, 37° C., 96-well
Description: 5000 cells per well were plated in 45 μl of media in 96-well plate, shaken at 750 rpm with an Orbital shaker for 20 seconds, and allowed to settle 16-24 hours (h). Desired concentration of drug was added to cells in a volume of […] to make the final volume per well up to 50 μl, was shaken at 750 rpm with an Orbital shaker for 20 seconds, and was then incubated for desired period of time. […] Shake at 750 rpm with an Orbital shaker for 20 seconds and incubate at 37° C. for 15 minutes (min) to 1 h (until cells lift).

BJ, MCF-7 and HeLa cells = conditions: untreated cells lifted with EDTA, APOPercentage staining
Description: (§1) In one method, five thousand cells were plated per well in 45 μl of media in 96-well plate. The cells were shaken at 750 rpm with an Orbital shaker for 20 seconds and allowed to settle for 16-24 hrs in 5% CO2 incubator at 37° C. A desired concentration of drug was added to cells in a volume of […] to make the final volume per well up to 50 μl. The cells and drug were mixed at 750 rpm with an Orbital shaker for 20 seconds and incubated again for desired period of time. Twelve microliters of 15 mM EDTA pH 6.14 (upto 20 mM can be added depending on the cell line) were added per well, mixed at 750 rpm with an Orbital shaker for 20 seconds and incubated at 37° C. for 45 min to 1 hour (until cells lift). Fifteen microliters of media containing 1 μl APOPercentage dye was added to the cells and incubated for 15-20 min at 37° C. The cells were analyzed on flow cytometer setting a threshold for FSC-H of 80,000, cytometer speed at medium (2 μl/sec), peristaltic pump speed at 23 rpm, shaking on 1800 rpm, gating on 2D plot of FSC vs SSC and a 1D plot measuring FL2-H/FL3-H on the X axis. The HTFC system was used.

HeLa cells [2] = conditions: 12 μl of 15 mM EDTA pH 6.14 added to media, 37° C., 96-well
Description: as §1
(§2) The following steps can be used to measure apoptosis using APOPercentage Assay in adherent cells. 5000 cells per well were plated in 45 μl of media in 96-well plate, shaken at 750 rpm with an Orbital shaker for 20 seconds, and allowed to settle 16-24 hours (h). Desired concentration of drug was added to cells in a volume of […] to make the final volume per well up to 50 μl, was shaken at 750 rpm with an Orbital shaker for 20 seconds, and was then incubated for desired period of time. 12 μl of 15 mM EDTA pH 6.14 per well was added (upto 20 mM can be added depending on the cell line). Shake at 750 rpm with an Orbital shaker for 20 seconds and incubate at 37° C. for 15 minutes (min) to 1 h (until cells lift).

HT1080 cells [3] = conditions: 12 μl of 15 mM EDTA pH 6.14 added to media, 37° C., 96-well
Description: as §1, §2

MCF-7 cells [4] = conditions: 12 μl of 15 mM EDTA pH 6.14 added to media, 37° C., 96-well
Description: as §1, §2

DU145 cells [5] = conditions: 12 μl of 15 mM EDTA pH 6.14 added to media, 37° C., 96-well
Description: as §1, §2

BJ cells = conditions: 12 μl of 15 mM EDTA pH 6.14 added to media, 37° C., 96-well
Description: as §1, §2

DU145 cells [6] = assay: Mitochondrial membrane potential (MMP) JC-1 assay by flow cytometry; assay type: cell-based; conditions: 2 μM JC-1, 100 mM H2O2 positive control, Accuri C6 HTFC, 96-well
Description: (§3) The following can be the steps used to determining MMP by Flow Cytometry in adherent cells. […] Add 15 μl of serum free media containing JC-1 dye so that the final concentration is 2 μM in a total volume of 77 μl and incubate for 1-2 h at 37° C. […] 100 mM H2O2 can be used as a positive control.
In FIGS. 7A-B, DU145 Cells unstained (blue), untreated (red) or treated (green) were analyzed by flow cytometry on an Accuri C6 to determine the percentage of cells with disrupted MMP. Cells were seeded at a density of 5×10^3 cells per well in 96-well plate. Following day media was removed from cells and replaced with 50 μl EDTA as a positive control for MMP disruption for 60 min. Cells were lifted with EDTA and stained with a final concentration of 2 μM JC-1 dye and analyzed by flow cytometry. Separation of unstained (blue), untreated (red) and treated (green) cells based on FL2-H and FL-1-H profile (A). 1D Histogram of unstained (blue), untreated (red) and treated (green) cells measuring fluorescence in the FL2-H channel (B).
In FIG. 8, DU145 and MCF-7 Cells were analyzed by flow cytometry on a BD LSRFortessa HTS to determine the level of MMP in cells. Data was analyzed using FlowJo version 7.6.5 software. […] Cells were lifted with EDTA and analyzed by flow cytometry.

HeLa cells [7] = assay: APOPercentage apoptosis assay by flow cytometry; assay type: cell-based; conditions: APOPercentage dye, 2.5 mM H2O2 positive control, Accuri C6 HTFC, 96-well
Description: (§4) The HTFC system was used.
(§5) Untreated and treated HeLa cells were also analyzed by flow cytometry on an Accuri C6 flow cytometer to determine the percentage of cells undergoing apoptosis (FIG. 4). Cells were seeded at a density of 5×10^3 cells per well in 96 well plate. Cells treated with 2.5 mM H2O2 for 30 minutes or 62 μl EDTA pH 6.14 for 15-30 min. added to cells after removing media were used as a positive control for apoptosis. Cells were lifted and stained with 10 APOPercentage dye. The cells were then analyzed by flow cytometry. […] FIG. 4C is a bar graph showing the percentage of non-apoptotic and apoptotic cells within the untreated or treated population of cells.
(§6) Add 15 μl of serum free media containing 1 μl APOPercentage dye and incubate for 15-20 min at 37° C. […] 2.5 mM H2O2 is used as a positive control.
Cells were seeded at a density of 5×10^3 cells per well in a 96-well plate. Following day, cells were treated with 2.5 mM H2O2 for 30 min. or 62 μl EDTA pH 6.14 for 15-30 min. added to cells after removing media as a positive control for apoptosis for 15-30 min. Cells were lifted with EDTA and stained with […] and analyzed by flow cytometry. […] 1D Histogram of untreated (blue) and treated (red) cells measuring fluorescence in the FL2-H channel and applying gates to delineate Non-apoptotic (blue) and Apoptotic (red) cells (FIG. 5B). […]

MCF-7 cells [8] = assay: Mitochondrial membrane potential (MMP) JC-1 assay by flow cytometry; assay type: cell-based; conditions: 2 μM JC-1, 100 mM H2O2 positive control, Accuri C6 HTFC, 96-well
Description: as §3
In FIG. […] Data was analyzed using FlowJo version 7.6.5 software. Cells were seeded at a density of 5×10^3 cells per well in a 96-well plate, the following day cells were left untreated (red) or treated with 100 mM H2O2 as a positive control (blue) for MMP disruption. DU145 cells were stained with a final concentration of 2 μM JC-1 dye (representative image). Cells were lifted with EDTA and analyzed by flow cytometry.

HeLa cells [9] = assay: as above; assay type: cell-based; conditions: 2 μM JC-1, 100 mM H2O2 positive control, Accuri C6 HTFC, 96-well
Description: as §3

HeLa cells [10] = assay: Reactive oxygen species (ROS) DCFDA assay by flow cytometry; assay type: cell-based; conditions: 10 μM DCFDA, 10 mM H2O2 positive control, Accuri C6 HTFC, 96-well
Description: (§7) Add 15 μl of serum free media and incubate for 5-10 min.
In FIG. 9, HeLa and MCF-7 Cells were analyzed by flow cytometry on an Accuri C6 to determine the level of ROS in cells. Cells were seeded at a density of 5×10^3 cells per well in a 96-well plate, the following day cells were treated with 10 mM H2O2 as a positive control for ROS and test compounds. HeLa cells were stained with a final concentration of 10 μM DCFDA dye immediately after adding H2O2 (A). After incubation cells were lifted with EDTA and analyzed by flow cytometry. Separation of untreated (yellow) and treated (purple) cells based on FL-1-H profile (A). MCF-7 cells were treated with Plumbagin and its derivative Crotonate Plumbagin for 1 h (B). A final 10 μM DCFDA was added simultaneously with Plumbagin and its derivative to cells. Following incubation with drug cells were lifted with EDTA and analyzed by flow cytometry.
In FIGS. 10A-B, MCF-7 and HeLa Cells were analyzed by flow cytometry on a BD LSRFortessa HTS to determine the level of ROS in cells. Data was analyzed using FlowJo version 7.6.5 software. Cells were seeded at a density of 5×10^3 cells per well in a 96-well plate, the following day cells were left untreated (blue peak) or treated with 10 mM H2O2 as a positive control (red peak) for ROS. […] Cells were lifted with EDTA and analyzed by flow cytometry.

MCF-7 cells [11] = assay: as above; assay type: cell-based; conditions: 10 μM DCFDA, 2-10 mM H2O2 positive control, Accuri C6 HTFC, 96-well
Description: as §7
In FIGS. […] Data was analyzed using FlowJo version 7.6.5 software. Cells were seeded at a density of 5×10^3 cells per well in a 96-well plate, the following day cells were left untreated (blue peak) or treated with 10 mM H2O2 as a positive control (red peak) for ROS. MCF-7 and HeLa cells were stained with a final concentration of 10 μM DCFDA dye immediately after adding H2O2 (A and B). Cells were lifted with EDTA and analyzed by flow cytometry.

BJ fibroblast cells = assay: APOPercentage apoptosis assay by flow cytometry; assay type: cell-based; conditions: APOPercentage dye, 2.5 mM H2O2 positive control, Accuri C6 HTFC, 96-well
Description: as §4
BJ fibroblast cells were analyzed by flow cytometry on an Accuri C6 flow cytometer to determine the percentage of cells undergoing apoptosis (FIG. 2). Cells were seeded at a density of 5×10^3 cells per well in 96 well plate. Cells exposed to 2.5 mM H2O2 for 30 minutes or 62 μl EDTA pH 6.14 for 15-30 min. added to cells after removing media were used as a positive control for apoptosis. Cells were lifted and stained with 1 μl APOPercentage dye. The cells were then analyzed by flow cytometry. […] FIG. 2B includes a 1D Histogram of untreated and treated cells showing the fluorescence measured in the FL2-H channel, where gates were applied to delineate non-apoptotic and apoptotic cells. FIG. 2C is a bar graph showing the percentage of non-apoptotic and apoptotic cells that was measured within the untreated or treated (positive control) population of cells.
as §6

HT1080 cells [12] = assay: APOPercentage apoptosis assay by flow cytometry; assay type: cell-based; conditions: APOPercentage dye, 2.5 mM H2O2 positive control, Accuri C6 HTFC, 96-well
Description: as §1
(§8) The following steps can be used to measure apoptosis using APOPercentage Assay in adherent cells. 5000 cells per well were plated in 45 μl of media in 96-well plate, shaken at 750 rpm with an Orbital shaker for 20 seconds, and allowed to settle 16-24 hours (h). […]

DU145 cells [13] = assay: APOPercentage apoptosis assay by flow cytometry; assay type: cell-based; conditions: APOPercentage dye, 2.5 mM H2O2 positive control, Accuri C6 HTFC, 96-well
Description: as §1, §8

MCF-7 cells [14] = assay: APOPercentage apoptosis assay by flow cytometry; assay type: cell-based; conditions: APOPercentage dye, 2.5 mM H2O2 positive control, Accuri C6 HTFC, 96-well
Description: as §4
as §5, with “treated MCF-7” for “treated HeLa”, “were” for “were also”, “(FIG. 3).” for “(FIG. 4).”, “apoptosis. The cells” for “apoptosis. Cells”, “with 1 μl” for “with 10”, “FIG. 3C” for “FIG. 4C”
as §6
In FIG. 6, MCF-7 Cells untreated (blue, left) or treated (red, right) were analyzed by flow cytometry on a BD LSRFortessa HTS flow cytometer to determine the percentage of cells undergoing apoptosis. Data was analyzed using FlowJo version 7.6.5 software. […] Cells were lifted with EDTA and stained with 1 μl APOPercentage and analyzed by flow cytometry. 1D Histogram of untreated (blue) and treated (red) cells measuring fluorescence in the PE-A channel and applying gates to delineate Non-apoptotic (blue) and Apoptotic (red) cells.

BT20 cells [15] = assay: Reactive oxygen species (ROS) DCFDA assay by flow cytometry; assay type: cell-based; conditions: 10 μM DCFDA, 2-10 mM H2O2 positive control, Accuri C6 HTFC, 96-well
Description: as §7

Structure (SMILES)	Time to lift with EDTA (BT20 cells [1]) [min]	effect of cell lifting chemical on untreated cells (membrane, apoptosis) (BJ, MCF-7 and HeLa cells)	Time to lift with EDTA (HeLa cells [2]) [min]	Time to lift with EDTA (HT1080 cells [3]) [min]	Time to lift with EDTA (MCF-7 cells [4]) [min]	Time to lift with EDTA (DU145 cells [5]) [min]	Time to lift with EDTA (BJ cells) [min]	Percent cells having JC-1 green in treated positive control (DU145 cells [6]) [%]	Percent cells stained in positive control (HeLa cells [7]) [%]	Percent cells having JC-1 green in treated positive control (MCF-7 cells [8]) [%]	Percent cells having JC-1 green in treated positive control (HeLa cells [9]) [%]	Percent cells stained with DCFDA in treated positive control (HeLa cells [10]) [%]	Percent cells stained with DCFDA in treated positive control (MCF-7 cells [11]) [%]	Percent cells stained in positive control (BJ fibroblast cells) [%]	Percent cells stained in positive control (HT1080 cells [12]) [%]	Percent cells stained in positive control (DU145 cells [13]) [%]	Percent cells stained in positive control (MCF-7 cells [14]) [%]	Percent cells stained with DCFDA in treated positive control (BT20 cells [15]) [%]
O=C(O)CN(CCN(CC(=O)O)CC(=O)O)CC(=O)O [EDTA, ethylenediaminetetraacetic acid]	40 to 60	did not induce unwanted apoptosis in untreated cells	30 to 45	20 to 30	15 to 20	20 to 30	30 to 50	–	–	–	–	–	–	–	–	–	–	–
OO [H2O2]	–	–	–	–	–	–	–	90	90	95	90	90	90	90	95	90	85	95
